# Experimental data reported in a melting point compilation (Tetko et al.).
row,melting point [°C],SMILES
1,110 to 112,Cc1c(C(=O)O)nnn1-c1ccccc1
2,106 to 108,O=C(O)c1cccnc1-n1cccn1
3,159 to 161,S=c1cc[nH]c2ccccc12
4,79 to 81,O=C1C=CC(=O)N1CCc1ccc(F)cc1
5,98 to 100,O=Cc1cccc(OC(C(=O)O)c2ccccc2)c1 (centres undefined)
6,144 to 146,NNc1ccc(-c2ccccc2)nn1
7,99 to 101,Nc1ncc(Cc2cccc(Cl)c2)s1
8,123 to 125,Cc1ccnc(-c2cccc(N)c2)n1
9,142 to 144,NC(CC(=O)Nc1ccc(F)cc1)=NO
10,174 to 176,Nc1ccc(Cc2nnn[nH]2)cc1
11,66 to 68,OCCc1ccc2ccccc2c1
12,90 to 92,CN(C)C(=O)C1CNc2ccccc2O1 (centres undefined)
13,78 to 80,O=Cc1cc(Br)c(OCc2ccccc2)c(Br)c1
14,229 to 231,O=C(O)c1ccc(N/N=C/c2cccc(F)c2)cc1
15,239 to 241,O=C(O)CCc1nc2ccccc2c(=O)[nH]1
16,164 to 166,O=C(O)C1CCN(c2ccccc2Br)C1=O (centres undefined)
17,179 to 181,O=C(O)c1cc2ccccn2c1
18,216 to 218,Oc1ccc2cncnc2c1
19,159 to 161,Nc1nc2ccc(Oc3ccccc3)cc2s1
20,209 to 211,O=C(O)c1cn(-c2ccccc2)nc1-c1ccc(Cl)s1
21,194 to 196,Nc1cc(-c2ccncc2)n[nH]1
22,94 to 96,O=C(O)C1CC1c1ccccc1OC(F)(F)F (centres undefined)
23,109 to 111,O=[N+]([O-])c1cn(Cc2ccc(F)cc2)cn1
24,187 to 189,NNc1ccc(S(=O)(=O)Nc2ccc(Cl)cc2)cc1[N+](=O)[O-]
25,82 to 84,Nc1ccnn1Cc1ccccc1
26,170 to 172,Cc1c(-c2csc(N)n2)sc2ccccc12
27,76 to 78,O=C(c1ccccc1)c1ccc(Br)cc1F
28,159 to 161,CC(Nc1ccc(Cl)nn1)c1ccccc1 (centres undefined)

row,melting point [°C],SMILES
1,68 to 70,O=C(Nc1ccccc1C(F)(F)F)OCC(F)(F)F
2,153 to 155,N#Cc1ccccc1OCc1cccc(C(=O)O)c1
3,264 to 266,O=C(O)c1ccc(-c2cc(F)c(F)c(F)c2)cc1
4,84 to 86,CN(CCCN1C(=O)C=CC1=O)c1ccccc1
5,208 to 210,CCCc1ccc(S(N)(=O)=O)cc1
6,98 to 100,Clc1ccc(NCc2cccnc2)cc1
7,71 to 75,COc1ccccc1C(=O)CC#N
8,51 to 53,CCOC(=O)COc1ccccc1O
9,147 to 149,NC(=O)Cc1noc2ccccc12
10,144 to 146,OC1CNc2c(ccc3ccccc23)C1 (centres undefined)
11,173 to 175,O=C(O)c1nnn(-c2ccc(F)cc2)c1C1CC1
12,86 to 88,OC(c1ccccc1)(c1ccc(F)cc1)c1ccc(F)cc1
13,190 to 192,N#Cc1cc(-c2ccccc2)sc1N
14,167 to 169,O=c1[nH]c(CCl)nc2scc(-c3ccccc3Cl)c12
15,78 to 80,OC(CNCc1ccccc1)c1ccsc1 (centres undefined)
16,184 to 186,COc1ccc2nc(C(=O)O)ccc2c1
17,88 to 90,CCc1ccccc1NC(=O)CN1CCNCC1
18,147 to 149,CC(C)C(NC(=O)CCc1ccccc1)C(=O)O (centres undefined)
19,157 to 159,O=C(O)CCN1C(=O)CCc2ccccc21
20,49 to 51,CCOC(=O)CS(=O)(=O)Cc1ccccc1
21,124 to 126,O=C(c1c[nH]c2ccccc12)C(Cl)c1ccccc1 (centres undefined)
22,95 to 97,Cc1cccc(NS(=O)(=O)c2ccc(C)c(N)c2)c1
23,153 to 155,Nc1ccc(Nc2ccc(F)cc2)c2ccncc12
24,74 to 76,CC(=O)CSc1ccccc1[N+](=O)[O-]
25,92 to 94,CC(O)c1ccc(-n2cccn2)cc1 (centres undefined)
26,128 to 130,C(=C\c1ccncc1)/c1ccccc1
27,177 to 179,O=Cc1ccc(-c2nc3ccccc3s2)o1

# The next lines start with the molecule.
row,SMILES,melting point [°C]
1,COc1cc(OC)c2ncc(C(=O)O)c(O)c2c1,299 to 301
2,COC(=O)c1n[nH]c(=O)c2noc(C)c12,215 to 217
3,O=C(O)CCc1nc(-c2ccsc2)no1,153 to 155
4,N#Cc1ccc(I)c(C(F)(F)F)c1,100 to 102
5,Cc1nn(C)c(C)c1OCC(=O)O,172 to 174
6,CC(C)(C)OC(=O)N1CCCc2ccc(N)cc21,90 to 92
7,O=C(O)Cc1coc2cc3c(cc12)CCC3,151 to 153
8,O=C(O)Cn1ccc2cc([N+](=O)[O-])ccc21,192 to 194
9,Cc1[nH]c(C(=O)O)c(C)c1C,80 to 82
10,O=C1CNc2ccc(S(=O)(=O)N3CCCCC3)cc2N1,144 to 146
11,O=[N+]([O-])c1cc(Cl)ccc1NC1CC1,70 to 72
12,CC(C)(C(=O)O)c1cccc(Cl)c1,65 to 67
13,COCCN(C(C)=O)c1nc(CCl)cs1,98 to 100
14,COc1ccnc(N2CCC(C(=O)O)CC2)n1,131 to 133
15,O=Cc1cccc(NC(=O)C(F)(F)F)c1,102 to 104
16,CC(NS(=O)(=O)c1ccc(Cl)cc1)C(=O)O (centres undefined),136 to 138
17,CNc1ccc(C=O)cc1[N+](=O)[O-],118 to 120
18,Cc1cc(Cl)c2cc(Cl)cc(C)c2n1,122 to 124
19,O=C(O)CNc1nccs1,261 to 263
20,N#Cc1cc(CBr)ccc1F,44 to 46
21,CCOc1ccccc1NC1=NCCS1,55 to 57
22,Cc1cc2c(c(C)c1Cl)C(=O)CCO2,67 to 69
23,CCN(CC)S(=O)(=O)c1cc(C(=O)O)ccc1C,142 to 144

row,SMILES,melting point [°C]
1,CN(C)c1ccc(C=O)s1,65 to 67
2,COC(=O)c1ccc(N)cc1F,109 to 111
3,NC(CC(=O)O)c1ccc(C(F)(F)F)cc1 (centres undefined),219 to 221
4,CCNc1ncccc1N,108 to 110
5,Nc1cc(F)c(-n2cccn2)cc1N,101 to 103
6,CS(=O)(=O)c1ccc(F)c(C(=O)O)c1,190 to 192
7,Cc1cccn2c(C=O)cnc12,83 to 85
8,O=C(O)CC1CCSCC1,69 to 71
9,CCOC(=O)C1=C(CCl)NC(=O)NC1c1ccc(OC)cc1 (centres undefined),169 to 171
10,COC1=CC(=C(N)N=O)C=CN1,174 to 176
11,Nc1ccc(S(=O)(=O)C(F)(F)F)cc1N,109 to 111
12,Nc1ccc(CCN2CCOCC2)cc1,87 to 89
13,CNC(=O)c1cccc(CCl)c1,61 to 63
14,C/C(=N\OCC(=O)O)c1ccc2c(c1)OCO2,136 to 138
15,Sc1nnc(N2CCOCC2)n1CC1CCCO1 (centres undefined),186 to 188
16,Cc1n[nH]c(C)c1CCC(=O)O,169 to 171
17,O=[N+]([O-])c1ccc2[nH]c3c(c2c1)CCCC3,172 to 174
18,COC(=O)c1c(N)sc2c1CCCCC2,94 to 98
19,Nc1ccc(N2CCOCC2)c(F)c1,121 to 123
20,Nc1cccc(CS(=O)C2CCOCC2)c1 (centres undefined),125 to 127
21,O=C(O)c1cnoc1C1CC1,159 to 161
22,Cc1cc(S(N)(=O)=O)c(C)cc1Br,207 to 209
23,NC(=O)C(Cl)c1ccc(F)cc1 (centres undefined),93 to 95

row,SMILES,melting point [°C]
1,CCOC(=O)/C(=C(/O)C(C)Cl)c1nc(C)cs1 (centres undefined),123 to 125
2,O=C(CCl)c1ccc(F)c(F)c1,37 to 39
3,COc1cc2c(cc1/C=C/C(=O)O)OC(C)C2 (centres undefined),146 to 148
4,O=C(CCl)Nc1ccc([N+](=O)[O-])cc1Br,165 to 167
5,COc1ncccc1O,64 to 66
6,Cc1cccc(NC(=O)C(Br)C(C)C)c1C (centres undefined),150 to 152
7,ClCc1nc2cccnc2s1,65 to 67
8,CS(=O)(=O)Nc1ccc(F)cc1C(=O)O,204 to 206
9,CC(C)n1cc(Br)cc1C(=O)O,148 to 150
10,Oc1nc(S)nc2c1CCC2,288 to 290
11,CCOC(=O)Nc1ccc(C(=O)O)cc1,170 to 172
12,[N-]=[N+]=NC(=O)c1ccco1,60 to 62
13,OCC(c1ccc(Br)cc1)N1CCNCC1 (centres undefined),109 to 111
14,O=C1CC(N2CCCC2)C(=O)N1 (centres undefined),123 to 125
15,COc1ccc([N+](=O)[O-])cc1NS(=O)(=O)c1cc(C(=O)O)ccc1Cl,57 to 59
16,NS(=O)(=O)c1c[nH]c(=O)[nH]c1=O,299 to 301
17,O=[N+]([O-])c1cnc(Cl)c(Br)c1,54 to 58
18,CCS(=O)(=O)NCc1ccc(C(=O)O)cc1,194 to 196
19,O=c1c(Cl)c(Cl)cnn1-c1ccc(C(F)(F)F)cn1,111 to 115
20,CCCn1c(C)nnc1S,129 to 131
21,Cc1cncc(N)c1,59 to 63
22,CS(=O)(=O)Cc1ccc(C(=O)O)o1,186 to 188
23,COc1ccc(C(=O)O)c(Cl)c1,209 to 211

row,SMILES,melting point [°C]
1,CC(C)C(=O)NC1(C#N)CCCC1,56 to 58
2,CC(=O)N1CCC(C(=O)O)(c2ccccc2)CC1,207 to 209
3,COC(=O)c1cc(S(=O)(=O)N2CCCC2)ccc1O,160 to 162
4,NC(=O)c1ccc(N2CCC(C(=O)O)CC2)nc1,284 to 286
5,Cc1ccc(-n2nc(C(=O)O)c3c2CCCC3)cc1F,208 to 210
6,O=C(O)c1ccc(Br)cc1C(F)(F)F,116 to 117
7,O=C(CCl)Nc1cc(-n2cnnn2)ccc1F,185 to 187
8,O=C1NC(=O)C2(CCCc3sccc32)N1 (centres undefined),267 to 269
9,O=C(O)c1[nH]nc(C2CC2)c1Cl,231 to 233
10,CC(C)c1ncc(C(=O)O)s1,133 to 135
11,CCCS(=O)(=O)N1CCC(N)CC1,49 to 51
12,COc1coc(CCl)cc1=O,116 to 118
13,Cc1nc(COc2cccc(C(=O)O)c2)cs1,153 to 155
14,O=C(O)CSc1nncn1C1CC1,203 to 205
15,NC(=O)CCN1C(=O)NC2(CCCC2)C1=O,150 to 152
16,Cc1cccc(C)c1-n1nnnc1S,146 to 148
17,O=C(CCl)NC1CS(=O)(=O)CC1Cl (centres undefined),181 to 190
18,O=C(O)c1cc(N=Nc2ccc(S(=O)(=O)Nc3ccccn3)cc2)ccc1O,260 to 265
19,CC(C)NC(=O)Cc1ccc(N)cc1,153 to 155
20,COc1cc(Cl)ccc1C(=O)NN,178 to 180
